Laboratory results: ChEMBL document CHEMBL1127220, “3-hydroxy-3-cyclobutene-1,2-dione: Application of novel carboxylic acid bioisostere to an in-vivo active non-tetrazole angiotensin-II antagonist” (Bioorg Med Chem Lett, 1993)

Tested on: Rattus norvegicus
Assay: Maximum % change of AII-supported portion of mean arterial pressure at 3 mg/kg, i.d.
Assay type: functional, Artery
Settings: route intraduodenal

Question: `O=c1c(O)c(-c2ccccc2-c2ccc(CNc3nc(C(F)(F)F)nc4c3CCCC4)cc2)c1=O` was tested. Which Change did it give?
Answer: Its Change is -52%.

Question: Which Change does the source give for `O=S(=O)(Nc1ccccc1-c1ccc(CNc2nc(C(F)(F)F)nc3c2CCCC3)cc1)C(F)(F)F` here?
Answer: The Change was -31%.

Question: For `O=C(O)c1ccccc1-c1ccc(CNc2nc(C(F)(F)F)nc3c2CCCC3)cc1`, which Change is on record?
Answer: Its Change is -62%.

Question: Which Change does the source give for `FC(F)(F)c1nc2c(c(NCc3ccc(-c4ccccc4-c4nn[nH]n4)cc3)n1)CCCC2` here?
Answer: The Change was -75%.

Question: How did the Change turn out when `CCCCc1nc(Cl)c(CO)n1Cc1ccc(-c2ccccc2-c2nnn[nH]2)cc1` [LOSARTAN] was run?
Answer: The Change was -72%.
